Source: ChEMBL document CHEMBL5608215, “Development of amphipathic derivatives of thymol and carvacrol as potent broad-spectrum antibacterial agents” (Eur J Med Chem, 2024)
Active and inactive are the calls of the source. No cut-off for these calls is given here.

Experiments:
[1] = test system: Escherichia coli; assay: Bactericidal activity against Escherichia coli ATCC25922 at MIC incubated for 12 hrs by time-kill assay relative to control; assay type: functional
[2] = test system: Staphylococcus aureus; assay: Antibacterial activity against Staphylococcus aureus ATCC29213 infected in mouse model assessed as uniform smooth skin at 5 to 10 mg/kg, sc measured after 24 hrs; assay type: functional, organism-based; conditions: dose 5-10 mg/kg
[3] = test system: Staphylococcus aureus; assay: Antibacterial activity against Staphylococcus aureus ATCC29213 in plasma pretreated plasma with compound for 6 hrs followed by bacterial infection into plasma; assay type: functional, organism-based
[4] = Hemolytic activity against rabbit RBC incubated for 1 hr by absorbance based assay; assay type: toxicity, cell-based, Oryctolagus cuniculus, Erythrocyte; conditions: rabbit red blood cells (erythrocytes)
[5] = test system: Staphylococcus aureus; assay: Antibacterial activity against Staphylococcus aureus ATCC29213 assessed as cell surface disruption at 8 times MIC by SEM analysis; assay type: functional, organism-based
[6] = test system: Staphylococcus aureus; assay: Antibacterial activity against Staphylococcus aureus ATCC25923 upto 32 ug/ml incubated for 16 to 18 hrs in presence of phosphatidylglycerol; assay type: functional, organism-based; conditions: dose <= 32.0 µg/ml, time 16-18 hrs
[7] = test system: Pseudomonas aeruginosa; assay: Antibacterial activity against Pseudomonas aeruginosa ATCC27853 by CLSI based serial dilution method; assay type: functional
[8] = Toxicity in KM mouse assessed as histopathological abnormality in lung upto 40 mg/kg, ip measured for 24 hrs by H and E staining based analysis; assay type: organism-based; conditions: in vivo
[9] = test system: Staphylococcus aureus; assay: Antibacterial activity against Staphylococcus aureus ATCC29213 infected in mouse model assessed as bacterial load in abscesses at 5 mg/kg, sc measured after 24 hrs; assay type: functional
[10] = Toxicity in KM mouse assessed as damage in liver upto 40 mg/kg, ip measured for 24 hrs by H and E staining based analysis; assay type: organism-based; conditions: in vivo
[11] = Cytotoxicity against HUVEC cells assessed as cell viability at 32 ug/ml incubated for 24 hrs by CCK8 assay relative to control; assay type: toxicity, cell-based; conditions: human, at 32 µg/mL, read-out: Activity
[12] = test system: Staphylococcus aureus; assay: Antibacterial activity against Staphylococcus aureus ATCC29213 infected in mouse model assessed as reduction in inflammatory factors in skin at 5 to 10 mg/kg, sc measured after 24 hrs by H and E staining based analysis; assay type: functional, organism-based; conditions: dose 5-10 mg/kg
[13] = test system: Staphylococcus aureus; assay: Antibacterial activity against Staphylococcus aureus ATCC25923 upto 32 ug/ml incubated for 16 to 18 hrs in presence of peptidoglycan; assay type: functional, organism-based; conditions: dose <= 32.0 µg/ml, time 16-18 hrs
[14] = test system: Staphylococcus aureus; assay: Antibacterial activity against Staphylococcus aureus ATCC29213 infected in mouse model assessed as bacterial concentration at 10 mg/kg, sc measured after 24 hrs (reference value: 10^10.13 CFU/g); assay type: functional
[15] = test system: Staphylococcus aureus; assay: Antibacterial activity against Staphylococcus aureus ATCC29213 infected in mouse model assessed as reduction in abscesses size at 5 to 10 mg/kg, sc measured after 24 hrs; assay type: functional, organism-based; conditions: dose 5-10 mg/kg
[16] = test system: Staphylococcus aureus; assay: Bactericidal activity against Staphylococcus aureus ATCC29213 assessed as log reduction in bacterial growth at 8 times MIC incubated for 24 hrs by time-kill assay; assay type: functional
[17] = test system: Staphylococcus aureus; assay: Antibacterial activity against Staphylococcus aureus ATCC25923 upto 32 ug/ml incubated for 16 to 18 hrs in presence of cardiolipin; assay type: functional, organism-based; conditions: dose <= 32.0 µg/ml, time 16-18 hrs
[18] = Toxicity in KM mouse assessed as damage in kidney upto 40 mg/kg, ip measured for 24 hrs by H and E staining based analysis; assay type: organism-based; conditions: in vivo
[19] = test system: Staphylococcus aureus; assay: Antibacterial activity against Staphylococcus aureus ATCC25923 upto 32 ug/ml incubated for 16 to 18 hrs in presence of phosphatidylethanolamine; assay type: functional, organism-based; conditions: dose <= 32.0 µg/ml, time 16-18 hrs
[20] = test system: Enterococcus faecalis; assay: Antibacterial activity against Enterococcus faecalis ATCC29212 by CLSI based serial dilution method; assay type: functional
[21] = test system: Staphylococcus aureus; assay: Antibacterial activity against Staphylococcus aureus ATCC29213 assessed as leakage of cell contents at 8 times MIC by SEM analysis; assay type: functional, organism-based
[22] = test system: Staphylococcus aureus; assay: Antibacterial activity against Staphylococcus aureus ATCC29213 infected in mouse model assessed as bacterial load reduction in abscesses at 10 mg/kg, sc measured after 24 hrs relative to control; assay type: functional; design: scale not given: the % may be the effect or the level left
[23] = Toxicity in KM mouse assessed as animal survival upto 40 mg/kg, ip measured for 24 hrs; assay type: organism-based; conditions: in vivo
[24] = test system: Escherichia coli; assay: Antibacterial activity against Escherichia coli ATCC25922 by CLSI based serial dilution method; assay type: functional
[25] = Selectivity index, ratio of HC50 against rabbit RBC for to MIC for Escherichia coli ATCC25922; assay type: toxicity; conditions: rabbit red blood cells, pooled result: one value given for 6 cell lines, strains, targets or settings, read-out: Selectivity Index
[26] = test system: Escherichia coli; assay: Bactericidal activity against Escherichia coli ATCC25922 at MIC incubated for 24 hrs by time-kill assay relative to control; assay type: functional
[27] = test system: Escherichia coli; assay: Bactericidal activity against Escherichia coli ATCC25922 assessed as inhibition of bacterial regrowth at 8 times MIC incubated for 24 hrs by time-kill assay; assay type: functional, organism-based
[28] = test system: Staphylococcus aureus; assay: Bactericidal activity against Staphylococcus aureus ATCC29213 at 8 times MIC incubated for 24 hrs by time-kill assay relative to control; assay type: functional
[29] = Toxicity in KM mouse assessed as histopathological abnormality in liver upto 40 mg/kg, ip measured for 24 hrs by H and E staining based analysis; assay type: organism-based; conditions: in vivo
[30] = test system: Enterococcus faecalis; assay: Antibacterial activity against Enterococcus faecalis ATCC29212 assessed as cell surface wrinkling at 8 times MIC by SEM analysis; assay type: functional, organism-based
[31] = Selectivity ratio of cytotoxicity against HUVEC cells for to MIC for Staphylococcus aureus ATCC29213; assay type: toxicity, cell-based; conditions: human
[32] = test system: Staphylococcus aureus; assay: Antibacterial activity against Staphylococcus aureus ATCC29213 infected in mouse model assessed as normalization of skin cell morphology at 5 to 10 mg/kg, sc measured after 24 hrs by H and E staining based analysis; assay type: functional, organism-based; conditions: dose 5-10 mg/kg
[33] = test system: Enterococcus faecalis; assay: Antibacterial activity against Enterococcus faecalis ATCC29212 assessed as leakage of cell contents at 8 times MIC by SEM analysis; assay type: functional, organism-based
[34] = test system: Escherichia coli; assay: Bactericidal activity against Escherichia coli ATCC25922 incubated upto 24 hrs by time-kill assay; assay type: functional, organism-based
[35] = test system: Escherichia coli; assay: Antibacterial activity against Escherichia coli ATCC25922 assessed as cell membrane damage incubated for 8 mins by SYTOX Green uptake assay; assay type: functional, organism-based
[36] = test system: Staphylococcus aureus; assay: Antibacterial activity against Staphylococcus aureus ATCC29213 assessed as cell surface wrinkling at 8 times MIC by SEM analysis; assay type: functional, organism-based
[37] = Toxicity in KM mouse assessed as histopathological abnormality in spleen upto 40 mg/kg, ip measured for 24 hrs by H and E staining based analysis; assay type: organism-based; conditions: in vivo
[38] = test system: Staphylococcus aureus; assay: Inhibition of antibiotic-resistance in Staphylococcus aureus ATCC29213 at 0.5 times of MIC incubated for 20 days; assay type: functional; conditions: time 20.0 day
[39] = test system: Enterococcus; assay: Antibacterial activity against vancomycin-resistant Enterococcus ATCC51299 by CLSI based serial dilution method; assay type: functional
[40] = test system: Staphylococcus aureus; assay: Antibacterial activity against Staphylococcus aureus ATCC29213 assessed as cell membrane damage incubated for 8 mins by SYTOX Green uptake assay; assay type: functional, organism-based
[41] = test system: Pseudomonas aeruginosa; assay: Anti-biofilm activity against Pseudomonas aeruginosa ATCC27853 assessed as biofilm formation rate at 8 times MIC incubated for 48 hrs by crystal violet staining based analysis relative to control; assay type: functional
[42] = test system: Staphylococcus aureus; assay: Antibacterial activity against Staphylococcus aureus ATCC29213 infected in mouse model assessed as bacterial concentration at 5 mg/kg, sc measured after 24 hrs (reference value: 10^10.13 CFU/g); assay type: functional

Compound: CCCCCCCNC(=O)C[N+](C)(C)CCCCOc1cc(C)ccc1C(C)C.[Br-]
- Activity [1]: 99.99%
- Activity [2]: Active
- Activity [3]: Active
- HC50 at 1 h [4]: 472 µg/mL
- Activity [5]: Active
- Activity [6]: inactive
- MIC [7]: 8 µg/mL
- Activity [8]: Non-Toxic
- Activity [9]: 2.14 log10CFU/g
- Activity [10]: Non-Toxic
- viability at 24 h, 32 ug/ml [11]: 68.7%
- Activity [12]: Active
- Activity [13]: Active
- Activity [14]: ~1 10^7.67CFU/g
- Activity [15]: Active
- Activity [16]: >3 log10CFU/ml
- Activity [17]: inactive
- Activity [18]: Non-Toxic
- Activity [19]: inactive
- MIC [20]: 1 µg/mL
- Activity [21]: Active
- Activity [22]: 99.65%
- Activity [23]: Non-Toxic
- MIC [24]: 2 µg/mL
- selectivity ratio [25]: 59
- Activity [26]: 100%
- inhibition [27]: Active
- Activity [28]: >99.9%
- Activity [29]: Non-Toxic
- Activity [30]: Active
- selectivity ratio [31]: 64
- Activity [32]: Active
- Activity [33]: Active
- Activity [34]: Dose-Dependent Effect
- Activity [35]: Dose-Dependent Effect
- Activity [36]: Active
- Activity [37]: Non-Toxic
- inhibition [38]: Active
- MIC [39]: 2 µg/mL
- Activity [40]: Dose-Dependent Effect
- Activity [41]: 22.3%
- Activity [42]: ~1 10^7.99CFU/g
